Source: patent US20190365699A1, “Treatment of Kidney Tumors by Intratumoral Injection of Taxane Particles” (CRITITECH, INC., priority 2018, published 2019)
Where two headings read alike, the source gives them in different places.

Assays:
[1] = Particle size analysis (light obscuration and laser diffraction); type: physicochemical
From the text: The particle size of the taxane particles can be determined by a particle size analyzer instrument and the measurement is expressed as the mean diameter based on a number distribution (number). A suitable particle size analyzer instrument is one which employs the analytical technique of light obscuration, also referred to as photozone or single particle optical sensing (SPOS). A suitable light obscuration particle size analyzer instrument is the ACCUSIZER, such as the ACCUSIZER 780 SIS, available from Particle Sizing Systems, Port Richey, Fla. Another suitable particle size analyzer instrument is one which employs laser diffraction, such as the Shimadzu SALD-7101.
Particle size was analyzed by both light obscuration and laser diffraction methods.
The vials were vortexed for approximately 10 seconds and then sonicated in a sonic bath approximately 1 minute.
The vial was vortexed for approximately 10 seconds and then sonicated in a sonic bath for approximately 2 minutes. This suspension was used for laser diffraction analysis. Unused suspension was poured into a 125 mL particle-free plastic bottle, which was then filled to approximately 100 mL with filtered dispersant. The suspension was vortex for approximately 10 seconds and then sonicated in the sonic bath for approximately 2 minutes. This diluted suspension was used for light obscuration analysis. […]

[2] = Docetaxel dissolution study, USP Apparatus II; type: physicochemical
Procedure: The procedures used to determine the dissolution rates are as follows. […] Beads were transferred to a stainless steel mesh container and placed in the dissolution bath containing methanol/water 50/50 (v/v) media at 37° C., pH 7, and a USP Apparatus II (Paddle), operating at 75 rpm. At 10, 20, 30, 60, and 90 minutes, a 5 mL aliquot was removed, filtered through a 0.22 μm filter and analyzed on a UV/VIS spectrophotometer at 227 nm. Absorbance values of the samples were compared to those of standard solutions prepared in dissolution media to determine the amount of material dissolved. […] At 5, 15, 30, 60, 120 and 225 minutes, a 5 mL aliquot was removed, filtered through a 0.22 μm filter, and analyzed on a UV/VIS spectrophotometer at 232 nm. Absorbance values of the samples were compared to those of standard solutions prepared in dissolution media to determine the amount of material dissolved.
At 5, 15, 30, 60, 120 and 225 minutes, a 5 mL aliquot was removed, filtered through a 0.22 μm filter, and analyzed on a UV/VIS spectrophotometer at 232 nm. Absorbance values of the samples were compared to those of standard solutions prepared in dissolution media to determine the amount of material dissolved.

[3] = system: human renal cell adenocarcinoma (786-O cell line); experiment: Drug efficacy in rat xenograft model, tumor volume; type: in vivo; conditions: IV, QW × 3, 2.5-5 mg/kg
[4] = system: human renal cell adenocarcinoma (786-O cell line); experiment: H&E and immunohistochemical evaluation of xenograft tumors; type: in vivo, Rat (Rattus norvegicus); conditions: for morphologic and immunohistochemical appearance of tumor: IV, 3 weekly cycles, versus vehicle/control
From the text: Tissue Collection: Primary Tumor (Inoculation site)—A final tumor measurement was taken prior to excision. Tumors were weighed after excision. Approximately ½ of each tumor (based on visual assessment) was flash frozen in 2-methylbutane on dry ice, the tumor piece was weighed when possible before it is flash frozen. The remaining was fixed in 10% neutral buffered formalin. Tumors were also collected from animals not reaching enrollment volume. Secondary Tumors—Any organ with visible tumors were collected and fixed in 10% neutral buffered formalin. Formalin fixed tissues were stored at room temperature. Frozen tissues were stored at −80° C. All tissue was stored for up to 3 months. Pictures of all tumors; primary and secondary if present, were taken.
Microscopic Examination: Tissues fixed with 10% NBF were embedded in paraffin. Each tumor was cut into 2-3 pieces and embedded and sectioned together.

[5] = Body weight and clinical observations in xenograft study; conditions: IV, group 6, initial dosage 5 mg/kg
Procedure: Individual Body Weights: Three times weekly (M, W, F) starting at the time of inoculation.
Macroscopic Examination: A necropsy was conducted on all animals dying spontaneously, euthanized in extremis or at the scheduled necropsy after 50 days post initiation of treatment. Animals euthanized in extremis or at study termination were euthanized by CO2 inhalation. Necropsy included examination of the external surface, all orifices and the thoracic, abdominal and pelvic cavities, including viscera. At the time of necropsy, a final body weight and body condition score was collected.

[6] = BET specific surface area analysis; type: physicochemical
Procedure: As used herein, the “specific surface area” (SSA) is the total surface area of the taxane particle per unit of taxane mass as measured by the Brunauer-Emmett-Teller (“BET”) isotherm by the following method: a known mass between 200 and 300 mg of the analyte is added to a 30 mL sample tube. […] The automated test is then carried out using the BETWIN® software package and the surface area of each sample is subsequently calculated. As will be understood by those of skill in the art, the “taxane particles” can include both agglomerated taxane particles and non-agglomerated taxane particles; since the SSA is determined on a per gram basis it takes into account both the larger agglomerated and smaller non-agglomerated taxane particles in the composition. The agglomerated taxane particles are defined herein as individual taxane particles that are formed by the agglomeration of smaller particles which fuse together forming the larger individual taxane particles, all of which occurs during the processing of the taxane particles. […]
A known mass between 200 and 300 mg of the analyte was added to a 30 mL sample tube. […] The automated test was then carried out using the BETWIN® software package and the surface area of each sample was subsequently calculated.

[7] = Bulk density (not tapped); type: physicochemical; conditions: room temperature
Procedure: As used herein, the “specific surface area” (SSA) is the total surface area of the taxane particle per unit of taxane mass as measured by the Brunauer-Emmett-Teller (“BET”) isotherm by the following method: a known mass between 200 and 300 mg of the analyte is added to a 30 mL sample tube. […] The automated test is then carried out using the BETWIN® software package and the surface area of each sample is subsequently calculated. As will be understood by those of skill in the art, the “taxane particles” can include both agglomerated taxane particles and non-agglomerated taxane particles; since the SSA is determined on a per gram basis it takes into account both the larger agglomerated and smaller non-agglomerated taxane particles in the composition. The agglomerated taxane particles are defined herein as individual taxane particles that are formed by the agglomeration of smaller particles which fuse together forming the larger individual taxane particles, all of which occurs during the processing of the taxane particles. The BET specific surface area test procedure is a compendial method included in both the United States Pharmaceopeia and the European Pharmaceopeia. […]
The mass of the drug was measured to a nearest 0.1 mg, the volume was determined to the nearest 0.1 mL and the density calculated.

[8] = Paclitaxel dissolution study, USP Apparatus II; type: physicochemical
Procedure: Beads were transferred to a stainless steel mesh container and placed in the dissolution bath containing methanol/water 50/50 (v/v) media at 37° C., pH 7, and a USP Apparatus II (Paddle), operating at 75 rpm. […] Absorbance values of the samples were compared to those of standard solutions prepared in dissolution media to determine the amount of material dissolved. […] Absorbance values of the samples were compared to those of standard solutions prepared in dissolution media to determine the amount of material dissolved.
Beads were transferred to a stainless steel mesh container and placed in the dissolution bath containing methanol/water 50/50 (v/v) media at 37° C., pH 7, and a USP Apparatus II (Paddle), operating at 75 rpm. […] Absorbance values of the samples were compared to those of standard solutions prepared in dissolution media to determine the amount of material dissolved.

CC(=O)O[C@@]12CO[C@@H]1C[C@H](O)[C@@]1(C)C(=O)[C@H](O)C3=C(C)[C@@H](OC(=O)[C@H](O)[C@@H](NC(=O)OC(C)(C)C)c4ccccc4)C[C@@](O)([C@@H](OC(=O)c4ccccc4)[C@H]21)C3(C)C [docetaxel]
Number Mean [1]: 1.58 um
Volume Mean [1]: 5.05 um
Docetaxel Dissolution time course ([2]; 0 minutes): 0.0%
Docetaxel Dissolution time course ([2]; 5 minutes): 3.2%
Docetaxel Dissolution time course ([2]; 15 minutes): 6.9%
Dissolution (30 min) ([2]; methanol/water 15/85 (v/v), 37° C., pH 7, 75 rpm, 30 min): 11%
tumor growth [3]: partial tumor growth inhibition compared to vehicle control
animals with Mild lymphohistiocytic infiltrate density ([4]; H/E and CD11b, IV docetaxel 3 cycles, 2 animals): 2
animals with <5% of tissue showing necrosis ([4]; IV docetaxel 3 cycles, 2 animals): 2
animals with viable carcinoma >10 mm ([4]; IV docetaxel 3 cycles, 2 female rats): 2
morphologic and immunohistochemical appearance of tumor [4]: identical morphologic and immunohistochemical appearance to that seen in the control and IT vehicle groups
morphologic and immunohistochemical appearance of tumor ([4]; listed as Docetaxel): no difference
toxicity [5]: observed toxicity on day 7

CC(=O)O[C@H]1C(=O)[C@@]2(C)[C@H]([C@H](OC(=O)c3ccccc3)[C@]3(O)C[C@H](OC(=O)[C@H](O)[C@@H](NC(=O)c4ccccc4)c4ccccc4)C(C)=C1C3(C)C)[C@]1(OC(C)=O)CO[C@@H]1C[C@@H]2O [Paclitaxel Raw Material, paclitaxel]
Surface area (BET, SSA) [6]: 10.4 m^2/g
Surface area (BET, SSA) ([6]; listed as raw paclitaxel): 7.25 m^2/g
Bulk Density (not tapped) [7]: 0.26 g/mL
Paclitaxel Dissolution time course ([8]; 0 minutes): 0.0%
Dissolution (30 min) ([8]; methanol/water 50/50 (v/v), 37° C., pH 7, 75 rpm, 30 min): 18%
